The values below come from PubChem BioAssay (NCI).

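Protocol summary: plate cells (96-well), add compound at 5 concentrations, incubate 48 h, interpolate endpoints linearly. Here, GI50 denotes the concentration required for 50% inhibition of growth. The concentration for full growth arrest is given as TGI.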

Holding throughout (test): inhibition of tumour cell growth, NCI panel, 48 h
Assay [1] concerns TK-10 renal.
In assay [2] the test system is HT29 colon.
For assay [3], the system named is ACHN renal.
In assay [4] the test system is OVCAR-3 ovarian.
The subject of assay [5] is UACC-257 melanoma.
The test system of assay [6] is SNB-19 CNS.
Assay [7] has as its system SR leukemia.
The subject of assay [8] is SK-MEL-28 melanoma.
Assay [9] has as its system A549 NSCLC.
Assay [10] relates to PC-3 prostate.

On to `CCCCCCCCC(=O)CCCCCCCCC(=O)O`, for which the TGI in [1] is over 100 µM; in [2], 49.7 µM; in [3], 59.8 µM; in assay [4] it was 40.1 µM; in [5] it was over 100 µM; in [6], over 100 µM. The TGI in assay [7] is 42.5 µM; in [8], over 100 µM; in assay [9] it was 45.2 µM.

Regarding `CC12Oc3ccc4ccccc4c3C1c1c(ccc3ccccc13)O2` (stereo not given), the TGI in [1], in [2], in assay [3], in [4], in assay [6] and in assay [7] was over 100 µM each time. Also, the TGI in [8] and in [9] was over 100 µM throughout.

In the case of `CCC1(O)C(=O)OCc2c1cc1n(c2=O)Cc2c-1nc1ccccc1c2OC` (stereo not given), the TGI in [1] was over 100 µM; in assay [2], over 87.1 µM; in assay [3], 0.06 µM; in assay [4], 5.85 µM; in assay [5], 2.68 µM; in assay [6], over 29.2 µM. Besides, the TGI was under 0.01 µM in assay [7], over 53.8 µM in assay [8] and 1.85 µM in assay [9].

Regarding `Cc1c(NC(=O)CCCl)c(=O)oc2c(C)c3occc(=O)c3cc12`, the TGI in [1], in assay [2], in assay [3], in assay [5], in assay [6] and in assay [7] was over 100 µM each time. Moreover, the TGI in assay [8] and in [9] was over 100 µM each time.

`Cc1ccc(NC(=O)C2C(=O)C(=O)N(c3ccc(C)cc3)C2=O)cc1` (stereo not given): the TGI in assay [1], in assay [2], in assay [3], in assay [5], in assay [6] and in assay [7] was over 100 µM in each case. The TGI in [9] is over 100 µM.

On to `CCC[CH2][Sn]([CH2]CCC)([O]C(=O)c1cc(OC)c(OC)c(OC)c1)[O]C(=O)c1cc(OC)c(OC)c(OC)c1`, for which the GI50 in [1] is 1.58 µM; in assay [2], 1.69 µM; in assay [3], 1.59 µM; in assay [4] it was 1.26 µM; in [5], 1.09 µM; in [6], 0.464 µM. Also, the results for the GI50 in assay [8] and in [9] were 0.633 µM and 3.59 µM, respectively. Also, the TGI is 3.02 µM in [1]; 3.33 µM in assay [2]; 2.98 µM in assay [3]; 2.59 µM in assay [4]; 2.47 µM in assay [5]; 1.54 µM in [6]. Moreover, the TGI in assay [8] came to 1.99 µM; in assay [9], 13.8 µM.

As to `[Ce+3].[Cl-].[O-]/N=C(\c1ccccc1)c1ccccn1.[O-]/N=C(\c1ccccc1)c1ccccn1.[O-]/N=C(\c1ccccc1)c1ccccn1`, the GI50 was 51.4 µM in [1]; 72 µM in assay [2]; 48.9 µM in [3]; 21.4 µM in assay [4]; 38 µM in assay [5]; 42.6 µM in [6]. In addition, the results for the GI50 in assay [8] and in assay [9] were 37.9 µM and 42.4 µM, respectively. For the same molecule, the TGI in assay [1] is over 100 µM; in assay [2], over 100 µM; in [3], over 100 µM; in assay [4] it was 90.3 µM; in assay [5], over 100 µM; in [6], over 100 µM. Also, the TGI in assay [8] and in assay [9] was over 100 µM each time.

`Cn1c(O)c(C=N)c(=O)n(C)c1=O`: the TGI in [1], in assay [2], in [3], in assay [4], in [5] and in [6] was over 100 µM each time. In addition, the TGI in assay [7], in [8] and in assay [9] was over 100 µM each time.

Regarding `CC1C(=O)CCC1C(Sc1ccccc1)(Sc1ccccc1)Sc1ccccc1` (stereo not given), the TGI in assay [1], in assay [2], in assay [3], in assay [4], in [5] and in assay [6] was over 100 µM in each case. Also, the TGI in assay [8] and in [9] was over 100 µM each time.

`COC(=O)C1=C2C3=C(C(=O)c4ccccc4C3=O)N(Cc3ccccc3)C2(OC(C)=O)C=CC1=O` (stereo not given): the TGI in assay [1] was 33.8 µM; in [2], over 100 µM; in [10], 19.2 µM; in [3] it was 26.4 µM; in assay [5], over 100 µM; in [6] it was over 100 µM. Moreover, the TGI was 66.7 µM in [8] and over 100 µM in assay [9]. The GI50 in assay [2] was 37 µM; in assay [10], 2.36 µM; in assay [3] it was 8.4 µM; in assay [5], 29.6 µM; in assay [6], 31.3 µM; in assay [8], 27.8 µM. In addition, the GI50 in assay [9] was 27.6 µM.

Regarding `Cc1cc(N2CCOCC2)nc(N(CCNc2ccnc3cc(Cl)ccc23)Cc2ccco2)n1`, the GI50 is 2.71 µM in assay [1]; 1.92 µM in [2]; 4.38 µM in assay [10]; 3.46 µM in [3]; 3.41 µM in assay [5]; 6.49 µM in [6]. In addition, the GI50 in [8] is 2.69 µM; in assay [9] it was 6.2 µM. Moreover, the TGI in [1] amounted to 9.62 µM; in [2], 5.53 µM; in assay [10], 20.6 µM; in assay [3] it was 15.3 µM; in assay [5], 16.5 µM; in assay [6], 48.1 µM. For the same molecule, the TGI in assay [8] was 7.67 µM; in assay [9] it was 39.1 µM.

Turning to `COC(=O)C(=C\Sc1ccccc1)/C=C/C(=O)OC(C)(C)C`, the TGI in assay [1] is 30.8 µM; in [2], 36.1 µM; in assay [3], 17.2 µM; in [4] it was 17 µM; in assay [5], 26.5 µM; in [6] it was 15.3 µM. Besides, the figures for the TGI in assay [7], in assay [8] and in assay [9] were 21 µM, 26.2 µM and 42 µM, respectively.
